Experimental data from US9546164B2 (GENENTECH, INC., priority 2013, dated 2017).
Where a name gives a salt, the structure may show the parent alone.

Target: hNav1.7 (Homo sapiens (Human), UniProt Q15858)
Test: Tritiated sulfonamide competitive binding to membranes from cells expressing hNav1.7 and the β1 subunit;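 also: Filter-bound radioactivity counted by liquid scintillation, nonspecific binding defined with excess unlabelled ligand, IC50 fitted to percent inhibition of specific binding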
Settings: read-out: Ligand Binding Assay; 100 pM [3H]compound, membranes with hNav1.7 and β1 subunit, 18 h, room temperature

Sequence of hNav1.7 (Q15858 other isoform, or with tags, fused parts or gaps): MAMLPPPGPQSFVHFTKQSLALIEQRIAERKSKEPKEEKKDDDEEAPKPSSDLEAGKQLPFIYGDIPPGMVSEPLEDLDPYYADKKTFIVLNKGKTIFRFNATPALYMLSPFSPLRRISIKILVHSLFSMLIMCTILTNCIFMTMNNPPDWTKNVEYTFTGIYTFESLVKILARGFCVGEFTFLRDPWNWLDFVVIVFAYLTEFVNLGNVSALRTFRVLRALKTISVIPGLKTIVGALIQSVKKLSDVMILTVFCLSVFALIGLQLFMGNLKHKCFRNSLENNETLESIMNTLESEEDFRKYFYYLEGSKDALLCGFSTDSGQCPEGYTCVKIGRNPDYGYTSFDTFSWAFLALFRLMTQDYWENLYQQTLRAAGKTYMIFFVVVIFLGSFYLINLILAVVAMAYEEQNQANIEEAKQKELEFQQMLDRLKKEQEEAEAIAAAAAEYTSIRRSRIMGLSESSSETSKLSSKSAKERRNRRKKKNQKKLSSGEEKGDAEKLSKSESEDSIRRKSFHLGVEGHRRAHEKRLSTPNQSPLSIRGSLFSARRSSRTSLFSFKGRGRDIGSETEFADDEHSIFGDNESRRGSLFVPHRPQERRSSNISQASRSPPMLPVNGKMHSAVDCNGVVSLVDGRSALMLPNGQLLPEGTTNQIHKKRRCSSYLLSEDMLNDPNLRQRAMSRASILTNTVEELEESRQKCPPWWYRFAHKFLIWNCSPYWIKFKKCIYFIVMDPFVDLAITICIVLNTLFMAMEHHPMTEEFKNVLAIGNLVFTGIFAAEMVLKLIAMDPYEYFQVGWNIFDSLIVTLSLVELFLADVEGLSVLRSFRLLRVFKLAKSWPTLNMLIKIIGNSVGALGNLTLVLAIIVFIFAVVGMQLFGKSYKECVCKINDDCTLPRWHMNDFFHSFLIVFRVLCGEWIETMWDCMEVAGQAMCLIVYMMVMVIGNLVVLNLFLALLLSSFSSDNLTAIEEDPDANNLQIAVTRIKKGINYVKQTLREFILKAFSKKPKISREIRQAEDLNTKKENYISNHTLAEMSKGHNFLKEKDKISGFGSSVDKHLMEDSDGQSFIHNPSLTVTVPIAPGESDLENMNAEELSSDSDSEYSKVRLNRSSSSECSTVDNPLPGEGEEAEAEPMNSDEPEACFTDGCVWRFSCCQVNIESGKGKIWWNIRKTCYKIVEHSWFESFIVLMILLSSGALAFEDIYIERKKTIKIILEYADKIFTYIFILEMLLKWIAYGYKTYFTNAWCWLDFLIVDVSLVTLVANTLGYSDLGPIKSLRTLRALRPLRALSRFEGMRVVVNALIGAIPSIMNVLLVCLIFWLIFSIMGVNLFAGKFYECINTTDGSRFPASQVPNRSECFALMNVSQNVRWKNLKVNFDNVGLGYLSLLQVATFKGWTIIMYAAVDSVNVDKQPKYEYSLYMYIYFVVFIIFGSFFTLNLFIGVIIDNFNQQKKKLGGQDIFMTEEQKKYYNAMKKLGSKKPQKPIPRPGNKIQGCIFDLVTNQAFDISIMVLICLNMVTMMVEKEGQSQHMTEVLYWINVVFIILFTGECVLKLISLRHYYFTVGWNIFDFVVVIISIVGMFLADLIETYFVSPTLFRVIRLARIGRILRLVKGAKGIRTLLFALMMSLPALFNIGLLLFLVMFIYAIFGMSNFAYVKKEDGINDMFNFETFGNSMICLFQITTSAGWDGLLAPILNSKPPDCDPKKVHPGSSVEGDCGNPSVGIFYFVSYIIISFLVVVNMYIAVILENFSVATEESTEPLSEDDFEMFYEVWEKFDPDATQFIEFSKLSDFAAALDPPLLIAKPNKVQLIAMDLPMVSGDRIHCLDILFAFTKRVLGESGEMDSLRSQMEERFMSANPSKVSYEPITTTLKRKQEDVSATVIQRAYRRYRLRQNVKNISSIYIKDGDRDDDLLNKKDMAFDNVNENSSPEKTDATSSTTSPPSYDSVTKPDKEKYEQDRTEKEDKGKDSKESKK
Sequence of hNav1.7 (Q07699 19-218 partner): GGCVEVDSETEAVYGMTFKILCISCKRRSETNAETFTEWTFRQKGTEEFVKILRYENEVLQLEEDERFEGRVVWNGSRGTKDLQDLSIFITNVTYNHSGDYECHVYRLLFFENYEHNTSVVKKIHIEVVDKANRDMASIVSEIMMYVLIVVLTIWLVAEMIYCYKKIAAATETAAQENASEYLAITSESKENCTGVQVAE

Compound	IC50
O=C(NS(=O)(=O)N1CCC1)c1cc(C2CC2)c(CN2CCC[C@H](Oc3cc(Cl)cc(Cl)c3)C2)cc1F [Example 54, (S)—N-(azetidin-1-ylsulfonyl)-5-cyclopropyl-4-((3-(3,5-dichlorophenoxy)piperidin-1-yl)methyl)-2-fluorobenzamide, acetic acid salt]	22 nM
O=C(NS(=O)(=O)C1CC1)c1cc(C2CC2)c(CN2CCC[C@@H](Oc3cc(Cl)cc(Cl)c3)C2)cc1F [Example 55, (R)-5-cyclopropyl-N-(cyclopropylsulfonyl)-4-((3-(3,5-dichlorophenoxy)piperidin-1-yl)methyl)-2-fluorobenzamide]	23.3 nM
O=C(NS(=O)(=O)N1CCC1)c1cc(C2CC2)c(CN2CCC[C@@H](Oc3cc(Cl)cc(Cl)c3)C2)cc1F [Example 56, (R)—N-(azetidin-1-ylsulfonyl)-5-cyclopropyl-4-((3-(3,5-dichlorophenoxy)piperidin-1-yl)methyl)-2-fluorobenzamide]	63.5 nM
O=C(NS(=O)(=O)C1CC1)c1cc(C2CC2)c(CN2CCC(Oc3cc(Cl)cc(Cl)c3)CC2)cc1F [Example 57, 5-cyclopropyl-N-(cyclopropylsulfonyl)-4-((4-(3,5-dichlorophenoxy)piperidin-1-yl)methyl)-2-fluorobenzamide, trifluoroacetic acid salt]	3.8 nM
CS(=O)(=O)NC(=O)c1cc(Cl)c(OCC2CN(C(c3ccccc3)c3ccccc3)C2)cc1F [Example 59, 4-((1-benzhydrylazetidin-3-yl)methoxy)-5-chloro-2-fluoro-N-(methylsulfonyl)benzamide]	76 nM
C[Si](C)(C)CCS(=O)(=O)NC(=O)c1cc(C2CC2)c(OCC2CN(C(c3ccccc3)c3ccccc3)C2)cc1F [Example 60, 4-((1-benzhydrylazetidin-3-yl)methoxy)-5-cyclopropyl-2-fluoro-N-((2-(trimethylsilyl)ethyl)sulfonyl)benzamide]	1600 nM
COCCS(=O)(=O)NC(=O)c1cc(C2CC2)c(OCC2CN(C(c3ccccc3)c3ccccc3)C2)cc1F [Example 61, 4-((1-benzhydrylazetidin-3-yl)methoxy)-5-cyclopropyl-2-fluoro-N-((2-methoxyethyl)sulfonyl)benzamide]	57 nM
O=C(NS(=O)(=O)C(F)F)c1cc(C2CC2)c(OCC2CN(C(c3ccccc3)c3ccccc3)C2)cc1F [Example 62]	47 nM
O=C(NS(=O)(=O)CCC(F)(F)F)c1cc(C2CC2)c(OCC2CN(C(c3ccccc3)c3ccccc3)C2)cc1F [Example 63, 4-((1-benzhydrylazetidin-3-yl)methoxy)-5-cyclopropyl-2-fluoro-N-((3,3,3-trifluoropropyl)sulfonyl)benzamide]	46 nM
O=C(NS(=O)(=O)CC1CC1)c1cc(C2CC2)c(OCC2CN(C(c3ccccc3)c3ccccc3)C2)cc1F [Example 64, 4-((1-benzhydrylazetidin-3-yl)methoxy)-5-cyclopropyl-N-((cyclopropylmethyl)-sulfonyl)-2-fluorobenzamide]	4.7 nM
CCCCS(=O)(=O)NC(=O)c1cc(C2CC2)c(OCC2CN(C(c3ccccc3)c3ccccc3)C2)cc1F [Example 65, 4-((1-benzhydrylazetidin-3-yl)methoxy)-N-(butylsulfonyl)-5-cyclopropyl-2-fluorobenzamide]	34 nM
CS(=O)(=O)NC(=O)c1cc(C2CC2)c(OCC2(F)CN(Cc3ccccc3)C2)cc1F [Example 66, 4-((1-benzyl-3-fluoroazetidin-3-yl)methoxy)-5-cyclopropyl-2-fluoro-N-(methylsulfonyl)benzamide]	91 nM
CC1(COc2cc(F)c(C(=O)NS(C)(=O)=O)cc2C2CC2)CN(C(c2ccccc2)c2ccccc2)C1 [Example 68, 4-((1-benzhydryl-3-methylazetidin-3-yl)methoxy)-5-cyclopropyl-2-fluoro-N-(methylsulfonyl)benzamide]	6.4 nM
CCS(=O)(=O)NC(=O)c1cc(C2CC2)c(OCC2(C)CN(C(c3ccccc3)c3ccccc3)C2)cc1F [Example 69, 4-((1-benzhydryl-3-methylazetidin-3-yl)methoxy)-5-cyclopropyl-N-(ethylsulfonyl)-2-fluorobenzamide]	6.1 nM
CC1(COc2cc(F)c(C(=O)NS(=O)(=O)C3CC3)cc2C2CC2)CN(C(c2ccccc2)c2ccccc2)C1 [Example 70, 4-((1-benzhydryl-3-methylazetidin-3-yl)methoxy)-5-cyclopropyl-N-(cyclopropylsulfonyl)-2-fluorobenzamide]	6 nM
CC1(COc2cc(F)c(C(=O)NS(=O)(=O)N3CCC3)cc2C2CC2)CN(C(c2ccccc2)c2ccccc2)C1 [Example 71, N-(azetidin-1-ylsulfonyl)-4-((1-benzhydryl-3-methylazetidin-3-yl)methoxy)-5-cyclopropyl-2-fluorobenzamide]	3.1 nM
CC(C)(C)OC(=O)N1CC(COc2cc(F)c(C(=O)NS(C)(=O)=O)cc2C2CC2)C1 [Example 72, tert-butyl 3-((2-cyclopropyl-5-fluoro-4-((methylsulfonyl)carbamoyl)phenoxy)methyl)azetidine-1-carboxylate]	750 nM
CS(=O)(=O)NC(=O)c1cc(C2CC2)c(OCC2CN(Cc3cccc(F)c3)C2)cc1F [Example 73, 5-cyclopropyl-2-fluoro-4-((1-(3-fluorobenzyl)azetidin-3-yl)methoxy)-N-(methylsulfonyl)benzamide]	1300 nM

Compound	IC50
CS(=O)(=O)NC(=O)c1cc(C2CC2)c(OCC2CN(Cc3ccccc3)C2)cc1F [Example 74, -((1-benzylazetidin-3-yl)methoxy)-5-cyclopropyl-2-fluoro-N-(methylsulfonyl)benzamide]	3600 nM
CS(=O)(=O)NC(=O)c1cc(C2CC2)c(OCC2CN(Cc3cc(F)cc(Cl)c3)C2)cc1F [Example 75, 4-((1-(3-chloro-5-fluorobenzyl)azetidin-3-yl)methoxy)-5-cyclopropyl-2-fluoro-N-(methylsulfonyl)benzamide]	74 nM
CS(=O)(=O)NC(=O)c1cc(C2CC2)c(OCC2CN(Cc3ccc(C(F)(F)F)c(F)c3)C2)cc1F [Example 76, 5-cyclopropyl-2-fluoro-4-((1-(3-fluoro-4-(trifluoromethyl)benzyl)azetidin-3-yl)methoxy)-N-(methylsulfonyl)benzamide]	42 nM
CC1(COc2cc(F)c(C(=O)NS(C)(=O)=O)cc2C2CC2)CN(Cc2cc(Cl)cc(Cl)c2)C1 [Example 77]	6.4 nM
CS(=O)(=O)NC(=O)c1cc(C2CC2)c(OCC2CCN(c3ccccc3)CC2)cc1F [Example 79, 5-cyclopropyl-2-fluoro-N-(methylsulfonyl)-4-((1-phenylpiperidin-4-yl)methoxy)benzamide]	9.9 nM
CS(=O)(=O)NC(=O)c1cc(C2CC2)c(OCC2CN(C(c3ccccc3)c3ccc(Cl)c(Cl)c3)C2)cc1F (centres unmarked) [Example 80, 5-Cyclopropyl-4-((1-((3,4-dichlorophenyl)(phenyl)methyl)azetidin-3-yl)methoxy)-2-fluoro-N-(methylsulfonyl)benzamide]	4.05 nM
CS(=O)(=O)NC(=O)c1cc(C2CC2)c(OCC2CN([C@H](c3ccccc3)c3cccnc3)C2)cc1F [Example 81, (R)-5-Cyclopropyl-2-fluoro-N-(methylsulfonyl)-4-((1-(phenyl(pyridin-3-yl)methyl)azetidin-3-yl)methoxy)benzamide]	630 nM
CS(=O)(=O)NC(=O)c1cc(C2CC2)c(OCC2CN([C@@H](c3ccccc3)c3cccnc3)C2)cc1F [Example 82]	408 nM
CC(C)Oc1ncc(CN2CC(COc3cc(F)c(C(=O)NS(C)(=O)=O)cc3C3CC3)C2)cc1Cl [Example 83, 4-((1-((5-Chloro-6-isopropoxypyridin-3-yl)methyl)azetidin-3-yl)methoxy)-5-cyclopropyl-2-fluoro-N-(methylsulfonyl)benzamide]	59 nM
C[C@@H](c1ccccc1)N1CC(COc2cc(F)c(C(=O)NS(C)(=O)=O)cc2C2CC2)C1 [Example 84, (S)-5-Cyclopropyl-2-fluoro-N-(methylsulfonyl)-4-((1-(1-phenylethyl)azetidin-3-yl)methoxy)benzamide]	1240 nM
C[C@H](c1ccccc1)N1CC(COc2cc(F)c(C(=O)NS(C)(=O)=O)cc2C2CC2)C1 [Example 85, (R)-5-Cyclopropyl-2-fluoro-N-(methylsulfonyl)-4-((1-(1-phenylethyl)azetidin-3-yl)methoxy)benzamide]	1860 nM
CC(c1cc(F)cc(F)c1)N1CC(COc2cc(F)c(C(=O)NS(C)(=O)=O)cc2C2CC2)C1 (centres unmarked) [Example 86, 5-Cyclopropyl-4-((1-(1-(3,5-difluorophenyl)ethyl)azetidin-3-yl)methoxy)-2-fluoro-N-(methylsulfonyl)benzamide]	49.5 nM
CS(=O)(=O)NC(=O)c1cc(C2CC2)c(OCC2CCN(Cc3ccccc3)CC2)cc1F [Example 87, 4-((1-Benzylpiperidin-4-yl)methoxy)-5-cyclopropyl-2-fluoro-N-(methylsulfonyl)benzamide]	278 nM
CS(=O)(=O)NC(=O)c1cc(C2CC2)c(OCC2CCN(Cc3cccc(F)c3)CC2)cc1F [Example 88, 4-((1-(3-Fluorobenzyl)piperidin-4-yl)methoxy)-5-cyclopropyl-2-fluoro-N-(methylsulfonyl)benzamide]	92.8 nM
CC(c1cc(F)cc(F)c1)N1CCC(COc2cc(F)c(C(=O)NS(C)(=O)=O)cc2C2CC2)CC1 (centres unmarked) [Example 89, 5-Cyclopropyl-4-((1-(1-(3,5-difluorophenyl)ethyl)piperidin-4-yl)methoxy)-2-fluoro-N-(methylsulfonyl)benzamide]	22.3 nM
COCC(c1cc(Cl)cc(Cl)c1)N1CCC(COc2cc(F)c(C(=O)NS(C)(=O)=O)cc2C2CC2)CC1 (centres unmarked) [Example 90, 5-Cyclopropyl-4-((1-(1-(3,5-dichlorophenyl)-2-methoxyethyl)piperidin-4-yl)methoxy)-2-fluoro-N-(methylsulfonyl)benzamide]	2.87 nM
COCC(c1cc(Cl)cc(Cl)c1)N1CC(COc2cc(F)c(C(=O)NS(C)(=O)=O)cc2C2CC2)C1 (centres unmarked) [Example 91, 5-Cyclopropyl-4-((1-(1-(3,5-dichlorophenyl)-2-methoxyethyl)azetidin-3-yl)methoxy)-2-fluoro-N-(methylsulfonyl)benzamide]	14.7 nM
